# Measurements reported in article PMC8617031, “Development of a BCL-xL and BCL-2 dual degrader with improved anti-leukemic activity,” (Nature Communications, 2021).
# Several values for one entry are separate records, joined by “and”; a condition that tells them apart may be missing. Equal values may be shown once. Read-outs that look alike come from different tables or passages of the source.
# Test system: Kasumi-1 cells
# Experiment: Viability (MTS) of Kasumi-1 AML cells
# Type: cell-based, human
# Conditions: for IC50: 72 h
# [1] = 3.90625 nM (plate column 2), Fig. 7a
# [2] = 7.8125 nM (plate column 3), Fig. 7a
# [3] = 15.625 nM (plate column 4), Fig. 7a
# [4] = 31.25 nM (plate column 5), Fig. 7a
# [5] = 62.5 nM (plate column 6), Fig. 7a
# [6] = 125 nM (plate column 7), Fig. 7a
# [7] = 250 nM (plate column 8), Fig. 7a
# [8] = 500 nM (plate column 9), Fig. 7a
# [9] = 1000 nM (plate column 10), Fig. 7a
# [10] = 2000 nM = 2U (plate column 11), Fig. 7a
# [11] = 4000 nM = 4U (plate column 12), Fig. 7a
Compound,Luminescence (raw plate reading) [1],Luminescence (raw plate reading) [2],Luminescence (raw plate reading) [3],Luminescence (raw plate reading) [4],Luminescence (raw plate reading) [5],Luminescence (raw plate reading) [6],Luminescence (raw plate reading) [7],Luminescence (raw plate reading) [8],Luminescence (raw plate reading) [9],Luminescence (raw plate reading) [10],Luminescence (raw plate reading) [11],"Luminescence normalised to mean of the 0 concentration wells (= 100), viability (3.90625 (nM), Fig. 7a)","Luminescence normalised to mean of the 0 concentration wells (= 100), viability (7.8125 (nM), Fig. 7a)","Luminescence normalised to mean of the 0 concentration wells (= 100), viability (15.625 (nM), Fig. 7a)","Luminescence normalised to mean of the 0 concentration wells (= 100), viability (31.25 (nM), Fig. 7a)","Luminescence normalised to mean of the 0 concentration wells (= 100), viability (62.5 (nM), Fig. 7a)","Luminescence normalised to mean of the 0 concentration wells (= 100), viability (125 (nM), Fig. 7a)","Luminescence normalised to mean of the 0 concentration wells (= 100), viability (250 (nM), Fig. 7a)","Luminescence normalised to mean of the 0 concentration wells (= 100), viability (500 (nM), Fig. 7a)","Luminescence normalised to mean of the 0 concentration wells (= 100), viability (1000 (nM), Fig. 7a)",other results
"CC1(C)CCC(CN2CCN(c3ccc(C(=O)NS(=O)(=O)c4ccc(NCC5CCOCC5)c([N+](=O)[O-])c4)c(Oc4cnc5[nH]ccc5c4)c3)CC2)=C(c2ccc(Cl)cc2)C1 [ABT199, venetoclax]",505600 and 468580 and 525678 and 543318,504424 and 455660 and 487360 and 542979,489014 and 455068 and 501527 and 480804,466073 and 441818 and 471956 and 491899,440585 and 409812 and 377802 and 367500,397154 and 357971 and 355935 and 386744,359551 and 316363 and 300748 and 321366,315682 and 289875 and 281016 and 292587,293868 and 256148 and 279970 and 273769,258049 and 207791 and 210071 and 198590,180705 and 155931 and 141587 and 133830,73.8707 and 68.4619 and 76.8042 and 79.3815,73.6989 and 66.5743 and 71.2058 and 79.332,71.4474 and 66.4878 and 73.2757 and 70.2479,68.0956 and 64.5519 and 68.9552 and 71.869,64.3717 and 59.8756 and 55.1988 and 53.6936,58.0262 and 52.3014 and 52.0039 and 56.5053,52.5322 and 46.2223 and 43.9408 and 46.9532,46.1228 and 42.3522 and 41.0579 and 42.7485,42.9356 and 37.4245 and 40.905 and 39.9991,"Luminescence normalised to mean of the 0 concentration wells (= 100), viability (2000 (nM, 2U), Fig. 7a): 37.7023 and 30.3593 and 30.6924 and 29.015; Luminescence normalised to mean of the 0 concentration wells (= 100), viability (4000 (nM, 4U), Fig. 7a): 26.4019 and 22.7823 and 20.6866 and 19.5532; IC50 (Homo sapiens, Kasumi 1, Fig. 7a, read-out: IC50, viability of Kasumi-1 AML cells): 867 nM; IC50 (Homo sapiens, Kasumi 1, Fig. 7c, read-out: IC50, viability of Kasumi-1 cells): 1130 nM"
Cc1c(-c2c(-c3ccc(F)o3)sc3ncnc(O[C@H](Cc4ccccc4OCc4ccnn4CC(F)(F)F)C(=O)O)c23)ccc(OCCN2CCN(C)CC2)c1Cl [S63845],585765 and 593361 and 588702 and 615617,614886 and 587762 and 581843 and 642033,585793 and 568144 and 557931 and 596587,583012 and 572945 and 570605 and 624151,545426 and 545383 and 550949 and 588219,511944 and 516519 and 502413 and 546675,434681 and 438403 and 429749 and 470053,365024 and 363596 and 364210 and 384218,263752 and 271433 and 266762 and 285013,165813 and 178184 and 172580 and 186041,112826 and 107734 and 101511 and 111059,85.5833 and 86.6931 and 86.0124 and 89.9448,89.838 and 85.875 and 85.0102 and 93.8043,85.5874 and 83.0087 and 81.5166 and 87.1644,85.181 and 83.7102 and 83.3683 and 91.1917,79.6895 and 79.6832 and 80.4965 and 85.9418,74.7976 and 75.4661 and 73.4051 and 79.872,63.5091 and 64.0529 and 62.7885 and 68.6771,53.3319 and 53.1232 and 53.2129 and 56.1362,38.5355 and 39.6577 and 38.9753 and 41.6419,"Luminescence normalised to mean of the 0 concentration wells (= 100), viability (2000 (nM, 2U), Fig. 7a): 24.2261 and 26.0336 and 25.2148 and 27.1815; Luminescence normalised to mean of the 0 concentration wells (= 100), viability (4000 (nM, 4U), Fig. 7a): 16.4845 and 15.7405 and 14.8313 and 16.2263; IC50 (Fig. 7a, read-out: IC50, viability of Kasumi-1 AML cells): 527 nM"
